Assay results from paper PMC8813674 (Computational and Structural Biotechnology Journal, 2022).
Like-named read-outs stand apart in the source and are kept apart here.

Legend:
[1] = tested on: porcine epidemic diarrhea virus (PEDV); test: microbe, parasite or virus in culture; conditions: 15 h, read-out: EC50 ± SD
[2] = tested on: porcine epidemic diarrhea virus (PEDV); conditions: for SI (=CC50/EC50): CC50 in eGFP-Vero cells / EC50 against mCherry-PEDV

SMILES: CCC(CC)COC(=O)[C@H](C)N[P@](=O)(OC[C@H]1O[C@@](C#N)(c2ccc3c(N)ncnn23)[C@H](O)[C@@H]1O)Oc1ccccc1 [Remdesivir]
- EC50 [1]: 2710 ± 700 nM
- Antiviral effect (mCherry expression and syncytia formation) ([2]; 50 µM, 15 h post-infection): completely inhibited
- SI (=CC50/EC50) [2]: >37
- SI (=CC50/EC50) ([2]; listed as remdesivir): > 37
